# Assay results taken from ChEMBL document CHEMBL5154879, “Induction of Genes Implicated in Stress Response and Autophagy by a Novel Quinolin-8-yl-nicotinamide QN523 in Pancreatic Cancer” (J Med Chem, 2022).
# pIC50: −log10 of the molar value. Activity calls are given as the source filed them. The calls are words filed in the database; no cut-off is given here.
# Experiments:
# [1] = tested on: MIA PaCa-2; assay: Induction of apoptosis in human MIA PaCa-2 cells assessed as late apoptotic cells at 0.1 uM incubated for 48 hrs by Annexin V-FITC/PI staining based flow cytometry analysis (reference value: 0.8%); type: functional
# [2] = Downregulation of LMNB2 gene expression in human MIA PaCa-2 cells assessed as fold change in LMNB2 expression at 1 uM incubated for 24 hrs by Bru-seq analysis relative to control; type: functional
# [3] = tested on: HepG2; assay: Antiproliferative activity against human HepG2 cells assessed as inhibition of cell growth incubated for 72 hrs by MTT assay; type: functional, cell-based; conditions: HepG2, 72 h
# [4] = tested on: BXPC-3; assay: Cytotoxicity against human BXPC-3 cells assessed as inhibition of cell growth incubated for 72 hrs by MTT assay; type: functional, cell-based; conditions: BXPC-3, 72 h
# [5] = tested on: Jurkat; assay: Antiproliferative activity against human Jurkat cells assessed as inhibition of cell growth incubated for 72 hrs by MTT assay; type: functional, cell-based
# [6] = Cytotoxicity against human HFF-1 cells assessed as inhibition of cell growth incubated for 72 hrs by MTT assay; type: toxicity, cell-based
# [7] = Cytotoxicity against HEK293 cells assessed as inhibition of cell growth incubated for 72 hrs by MTT assay; type: toxicity, cell-based; conditions: human
# [8] = tested on: PANC-1; assay: Inhibition of colony formation in human PANC-1 cells at 1 uM incubated for 10 to 14 days by crystal violet staining based assay; type: functional, cell-based; conditions: time 10-14 day
# [9] = tested on: BXPC-3; assay: Inhibition of colony formation in human BXPC-3 cells at 1 uM incubated for 10 to 14 days by crystal violet staining based assay; type: functional, cell-based; conditions: time 10-14 day
# [10] = tested on: MIA PaCa-2; assay: Antiproliferative activity against human MIA PaCa-2 cells assessed as inhibition of cell growth at 0.1 to 10 uM incubated for 1 to 72 hrs followed by compound washout with PBS and replacement with fresh culture medium and measured after 72 hrs by MTT assay; type: functional, cell-based; conditions: dose 0.1-10 µM, time 1-72 hrs, TDE = time-dependent effect
# [11] = tested on: MIA PaCa-2; assay: Induction of apoptosis in human MIA PaCa-2 cells assessed as live cells at 0.1 uM incubated for 48 hrs by Annexin V-FITC/PI staining based flow cytometry analysis (reference value: 96.3%); type: functional
# [12] = tested on: MIA PaCa-2; assay: Induction of apoptosis in human MIA PaCa-2 cells assessed as necrotic cells at 0.1 uM incubated for 48 hrs by Annexin V-FITC/PI staining based flow cytometry analysis (reference value: 1.07%); type: functional
# [13] = tested on: MIA PaCa-2; assay: Induction of apoptosis in human MIA PaCa-2 cells assessed as early apoptotic cells at 0.5 uM incubated for 48 hrs by Annexin V-FITC/PI staining based flow cytometry analysis (reference value: 1.8%); type: functional
# [14] = Toxicity in NOD/SCID mouse xenografted with human MIA PaCa- 2 cells assessed as morphological changes in spleen at 10 to 20 mg/kg, ip administered five times a week for 44 days by H and E staining based inverted microscopic analysis; type: organism-based; conditions: in vivo, 1056 h, dose 10-20 mg/kg, time 44 day
# [15] = Toxicity in NOD/SCID mouse xenografted with human MIA PaCa- 2 cells assessed as morphological changes in pancreas at 10 to 20 mg/kg, ip administered five times a week for 44 days by H and E staining based inverted microscopic analysis; type: organism-based; conditions: in vivo, 1056 h, dose 10-20 mg/kg, time 44 day
# [16] = Toxicity in NOD/SCID mouse xenografted with human MIA PaCa- 2 cells assessed as morphological changes in liver at 10 to 20 mg/kg, ip administered five times a week for 44 days by H and E staining based inverted microscopic analysis; type: organism-based; conditions: in vivo, 1056 h, dose 10-20 mg/kg, time 44 day
# [17] = Upregulation of DDIT3 gene expression in human MIA PaCa-2 cells assessed as fold change in DDIT3 expression at 1 uM incubated for 24 hrs by Bru-seq analysis relative to control; type: functional
# [18] = Upregulation of MAP1LC3B gene expression in human MIA PaCa-2 cells assessed as fold change in MAP1LC3B expression at 1 uM incubated for 24 hrs by Bru-seq analysis relative to control; type: functional
# [19] = Upregulation of ARG2 gene expression in human MIA PaCa-2 cells assessed as fold change in ARG2 expression at 1 uM incubated for 24 hrs by Bru-seq analysis relative to control; type: functional
# [20] = Downregulation of P1F1 gene expression in human MIA PaCa-2 cells assessed as fold change in P1F1 expression at 1 uM incubated for 24 hrs by Bru-seq analysis relative to control; type: functional
# [21] = Downregulation of CCNF gene expression in human MIA PaCa-2 cells assessed as fold change in CCNF expression at 1 uM incubated for 24 hrs by Bru-seq analysis relative to control; type: functional
# [22] = Downregulation of GTSEI gene expression in human MIA PaCa-2 cells assessed as fold change in GTSEI expression at 1 uM incubated for 24 hrs by Bru-seq analysis relative to control; type: functional
# [23] = Downregulation of SEMA6B gene expression in human MIA PaCa-2 cells assessed as fold change in SEMA6B expression at 1 uM incubated for 24 hrs by Bru-seq analysis relative to control; type: functional
# [24] = tested on: MIA PaCa-2; assay: Upregulation of hypoxia in human MIA PaCa-2 cells by gene set enrichment analysis; type: functional, cell-based
# [25] = tested on: MIA PaCa-2; assay: Additive autophagy activity in human MIA PaCa-2 cells assessed as inhibition of colony formation at 0.001 to 0.1 uM incubated for 7 days in presence of autophagy inhibitor chloroquine by crystal violet staining based assay; type: functional, cell-based; conditions: dose 0.001-0.1 µM, time 7.0 day
# [26] = tested on: MIA PaCa-2; assay: Induction of autophagy in human MIA PaCa-2 cells assessed as accumulation of LC3B marker gene expression at upto 2 uM incubated for 72 hrs by Western blot analysis; type: functional, cell-based
compound,measurement,setting,value
O=C(Nc1cccc2cccnc12)c1cnccn1,Activity,[1],1.5%
same,fold change (FC),[2],0.46
same,pIC50,[3],6.30
same,pIC50,[4],5.48
same,pIC50,[5],7.00
same,IC50 at 72 h,[6],> 30000 nM
same,IC50 at 72 h,[7],150 nM
same,inhibition,[8],Active
same,inhibition,[9],Active
same,Activity,[10],Tde
same,Activity,[11],92%
same,Activity,[12],1.1%
same,Activity,[13],2.2%
same,Activity,[14],Non-Toxic
same,Activity,[15],Non-Toxic
same,Activity,[16],Non-Toxic
same,fold change (FC),[17],11
same,fold change (FC),[18],6.8
same,fold change (FC),[19],12
same,fold change (FC),[20],0.28
same,fold change (FC),[21],0.36
same,fold change (FC),[22],0.46
same,fold change (FC),[23],0.43
same,Activity,[24],Active
same,Activity,[25],Active
same,Activity,[26],Active
